Earlier results as cited in patent US8222453B2, “Benzamide factor VIIa inhibitors useful as anticoagulants” (Bristol-Myers Squibb Company, priority 2006, dated 2012).

Experiments:
[1] = system: systemic thrombin generation; details: patients undergoing coronary angioplasty
deep vein thrombosis = details: patients undergoing total knee replacement

Substance: recombinant nematode anticoagulant protein c2 [rNAPc2]
- systemic thrombin generation [1]: reduces systemic thrombin generation
- deep vein thrombosis (deep vein thrombosis): prevents deep vein thrombosis
